In patent publication US9249116B2, “Enzyme-activating compounds and compositions” (The Board of Trustees of the University of Illinois, priority 2012, dated 2016):
Where two headings read alike, the source gives them in different places.

Columns and labels:
[1] = system: U-937 cells (human lymphoma); assay: 72 Hour IC50 cell death assay (sulforhodamine B); type: cell-based
Protocol: After the synthesis was complete, the biological activity of the compounds was evaluated.
U-937 human lymphoma cells were plated into the wells of 96 well plate at a density of 15,000 cells per well in 99 μL of RPMI 1640 growth media with 10% FBS and 1% pen-strep. To each well was added 1 μL of compound stock solutions in DMSO at varying concentrations such that the cells were treated with concentrations between 0 μM and 100 μM compound. Each concentration was tested in quintuplicate per plate. In each plate 5 wells received 20 μM doxorubicin as a positive death control and 5 wells received 1 μL of DMSO as a negative control.
After the 72 hour incubation period, the plates were analyzed using a Sulforhodamine B assay (Vichai and Kirtikara, Nat Protoc 2006, 1, 1112-1116). Specifically, to each well of the plate 25 μL of a 50% (w/v) solution of trichloroacetic acid in H2O was added and the plates were incubated for 4 hours at 4° C. The plates were then washed gently with water five times. The plates were allowed to air dry after which 100 μL of a 0.057% (w/v) Sulforhodamine B in a 1% (v/v) acetic acid solution was added to each well for 30 minutes at room temperature. The plates were gently washed 5 times with 1% (v/v) acetic acid and air dried. 200 μL of 10 mM Tris base (pH 10.4) was added to each well and the plates were placed on an orbital shaker for thirty minutes. The level of SRB was quantified fluorometrically at excitation and emission wavelengths 488 and 585 nm, respectively, on a Molecular Devices plate reader and the percent cell death calculated and normalized to the positive control (100% cell death) and the negative control (0% cell death). The percent cell death was averaged for each compound concentration and plotted as a function of compound concentration. The data were fit to a logistical dose response curve using Table curve 2D and the IC50 value was calculated. The experiment was repeated three times and the average of the calculated IC50 values was reported. The standard error of the mean (SEM) was determined and reported for the triplicate experiments.

[2] = Liver microsome stability assay; type: in vitro ADME; settings: rat liver microsomes, 10 μM, LC/MS
Protocol: FIG. 4. Liver Microsome Stability Assay. Compounds (10 μM) incubated with liver microsomes for 3 h and quenched with MeCN containing internal standard, analyzed by LC/MS (280 nm). Next, the metabolic stability of the compounds was evaluated in rat liver microsomes. The compounds were evaluated for 3 hours at 10 μM, and the metabolites were observed by LC/MS.

[3] = system: mice; assay: Assessment of toxicity in vivo; settings: mice; scale 0 to 3, or time of death
Excerpt: The level of toxicity was rated on a scale of 0 (no observable adverse effect) to 3 (severe toxicity, almost fatal).

[4] = read-out: U-937 72 h IC50 (μM), Table 1, U-937 cells, 72 h

Compound	RLM 3 h % Stability [2] [%]	IC50 [1, 4] [µM]	IC50 ([1]; U-937, 72 h, read-out: U-937 72 h IC50 (μM)) [µM]	Mouse Toxicity [3]
C=CCc1cc(F)cc(/C=N/NC(=O)CN2CCN(Cc3ccc(S(N)(=O)=O)cc3)CC2)c1O [Compound 29, 4-((4-(2-(2-(3-allyl-5-fluoro-2-hydroxybenzylidene)hydrazinyl)-2-oxoethyl)piperazin-1-yl)methyl)benzenesulfonamide]	89 ± 3	–	–	–
N#Cc1ccc(C(=O)N2CCN(CC(=O)N/N=C/c3cc(F)ccc3O)CC2)cc1 [Compound 23, 2-(4-(4-cyanobenzoyl)piperazin-1-yl)-N′-(5-fluoro-2-hydroxybenzylidene)acetohydrazide]	88 ± 4	–	15.3 ± 1.3	–
N#Cc1ccc(CN2CCN(CC(=O)N/N=C/c3cc(F)ccc3O)CC2)cc1 [Compound 22, 2-(4-(4-cyanobenzyl)piperazin-1-yl)-N′-(5-fluoro-2-hydroxybenzylidene)acetohydrazide]	79 ± 4	13.5 ± 1	–	death <24 h (the mice died either within 24 hours of treatment)
CCCc1cc(F)cc(/C=N/NC(=O)CN2CCN(C(=O)c3ccc(C#N)cc3)CC2)c1O [Compound 41, 2-(4-(4-cyanobenzoyl)piperazin-1-yl)-N′-(5-fluoro-2-hydroxy-3-propylbenzylidene)acetohydrazide]	66 ± 3	–	–	–
O=C(CN1CCN(C(=O)c2ccc(F)cc2)CC1)N/N=C/c1cc(F)ccc1O [Compound 25, N′-(5-fluoro-2-hydroxybenzylidene)-2-(4-(4-fluorobenzoyl)piperazin-1-yl)acetohydrazide]	86 ± 2	15.3 ± 0.8	–	–
O=C(CN1CCN(Cc2ccc(C(F)(F)F)cc2)CC1)N/N=C/c1cc(F)ccc1O [Compound 26, N′-(5-fluoro-2-hydroxybenzylidene)-2-(4-(4-(trifluoromethyl)benzyl)piperazin-1-yl)acetohydrazide]	30 ± 5	4.7 ± 0.3	–	3
C=CCc1cccc(/C=N/NC(=O)CN2CCN(C(=O)c3ccccc3)CC2)c1O [Compound 3, N′-(3-allyl-2-hydroxybenzylidene)-2-(4-benzoylpiperazin-1-yl)acetohydrazide]	89 ± 4	12.1 ± 1.3	–	3
C=CCc1cc(F)cc(/C=N/NC(=O)CN2CCN(Cc3ccc(C#N)cc3)CC2)c1O [Compound 31, N′-(3-allyl-5-fluoro-2-hydroxybenzylidene)-2-(4-(4-cyanobenzyl)piperazin-1-yl)acetohydrazide]	65 ± 2	12.7 ± 2	–	–
O=C(CN1CCN(Cc2ccc(F)cc2)CC1)N/N=C/c1cc(F)ccc1O [Compound 24, N′-(5-fluoro-2-hydroxybenzylidene)-2-(4-(4-fluorobenzyl)piperazin-1-yl)acetohydrazide]	62 ± 2	11.7 ± 1.4	–	3
C=CCc1cc(F)cc(/C=N/NC(=O)CN2CCN(C(=O)c3ccc(C(F)(F)F)cc3)CC2)c1O [Compound 36, N′-(3-allyl-5-fluoro-2-hydroxybenzylidene)-2-(4-(4-(trifluoromethyl)benzoyl)piperazin-1-yl)acetohydrazide]	90 ± 2	–	–	–
O=C(CN1CCN(C(=O)c2ccccc2)CC1)N/N=C/c1cc(F)ccc1O [Compound 21, 2-(4-benzoylpiperazin-1-yl)-N′-(5-fluoro-2-hydroxybenzylidene)acetohydrazide]	88 ± 1	15.7 ± 2.6	–	–
C=CCc1cc(F)cc(/C=N/NC(=O)CN2CCN(C(=O)c3ccc(C#N)cc3)CC2)c1O [Compound 32, N′-(3-allyl-5-fluoro-2-hydroxybenzylidene)-2-(4-(4-cyanobenzoyl)piperazin-1-yl)acetohydrazide]	95 ± 4	–	–	–

Continued, in another order:

RLM 3 h % Stability [2] [%]	Compound	IC50 [1, 4] [µM]	IC50 ([1]; U-937, 72 h, read-out: U-937 72 h IC50 (μM)) [µM]	Mouse Toxicity [3]
49 ± 5	CCCc1cc(F)cc(/C=N/NC(=O)CN2CCN(Cc3ccc(C#N)cc3)CC2)c1O [Compound 40, 2-(4-(4-cyanobenzyl)piperazin-1-yl)-N′-(5-fluoro-2-hydroxy-3-propylbenzylidene)acetohydrazide]	11.2 ± 0.9	–	–
71 ± 3	CCCc1cccc(/C=N/NC(=O)CN2CCN(C(=O)c3ccccc3)CC2)c1O [Compound 12, 2-(4-benzoylpiperazin-1-yl)-N′-(2-hydroxy-3-propylbenzylidene)acetohydrazide]	9.4 ± 1.3	–	–
48 ± 1	CCCc1cc(F)cc(/C=N/NC(=O)CN2CCN(Cc3ccc(F)cc3)CC2)c1O [Compound 42, N′-(5-fluoro-2-hydroxy-3-propylbenzylidene)-2-(4-(4-fluorobenzyl)piperazin-1-yl)acetohydrazide]	7.5 ± 0.7	–	–
85 ± 6	C=CCc1cccc(/C=N/NC(=O)CN2CCN(C(=O)c3ccc(C(F)(F)F)cc3)CC2)c1O [Compound 9, N′-(3-allyl-2-hydroxybenzylidene)-2-(4-(4-(trifluoromethyl)benzoyl)piperazin-1-yl)acetohydrazide]	–	–	–
61 ± 3	CCCc1cccc(/C=N/NC(=O)CN2CCN(C(=O)c3ccc(C#N)cc3)CC2)c1O [Compound 14, 2-(4-(4-cyanobenzoyl)piperazin-1-yl)-N′-(2-hydroxy-3-propylbenzylidene)acetohydrazide]	12.8 ± 2.7	–	–
57 ± 1	C=CCc1cc(F)cc(/C=N/NC(=O)CN2CCN(Cc3ccc(F)cc3)CC2)c1O [Compound 33, N′-(3-allyl-5-fluoro-2-hydroxybenzylidene)-2-(4-(4-fluorobenzyl)piperazin-1-yl)acetohydrazide]	10.3 ± 4.1	–	–
64 ± 5	CCCc1cc(F)cc(/C=N/NC(=O)CN2CCN(C(=O)c3ccc(C(F)(F)F)cc3)CC2)c1O [Compound 45, N′-(5-fluoro-2-hydroxy-3-propylbenzylidene)-2-(4-(4-(trifluoromethyl)benzoyl)piperazin-1-yl)acetohydrazide]	–	–	–
15 ± 2	CCCc1cccc(/C=N/NC(=O)CN2CCN(Cc3ccc(C(F)(F)F)cc3)CC2)c1O [Compound 17]	–	–	–
61 ± 2	CCCc1cccc(/C=N/NC(=O)CN2CCN(Cc3ccc(S(N)(=O)=O)cc3)CC2)c1O [Compound 11, 4-((4-(2-(2-(2-hydroxy-3-propylbenzylidene)hydrazinyl)-2-oxoethyl)piperazin-1-yl)methyl)benzenesulfonamide]	–	–	–
69 ± 4	CCCc1cccc(/C=N/NC(=O)CN2CCN(C(=O)c3ccc(F)cc3)CC2)c1O [Compound 16, 2-(4-(4-fluorobenzoyl)piperazin-1-yl)-N′-(2-hydroxy-3-propylbenzylidene)acetohydrazide]	7.3 ± 0.9	–	–
49 ± 3	C=CCc1cc(F)cc(/C=N/NC(=O)CN2CCN(Cc3ccc(C(F)(F)F)cc3)CC2)c1O [Compound 35, N′-(3-allyl-5-fluoro-2-hydroxybenzylidene)-2-(4-(4-(trifluoromethyl)benzyl)piperazin-1-yl)acetohydrazide]	–	–	–
40 ± 1	CCCc1cc(F)cc(/C=N/NC(=O)CN2CCN(Cc3ccc(C(F)(F)F)cc3)CC2)c1O [Compound 44, N′-(5-fluoro-2-hydroxy-3-propylbenzylidene)-2-(4-(4-(trifluoromethyl)benzyl)piperazin-1-yl)acetohydrazide]	–	–	–
64 ± 1	CCCc1cccc(/C=N/NC(=O)CN2CCN(C(=O)c3ccc(C(F)(F)F)cc3)CC2)c1O [Compound 18, N′-(2-hydroxy-3-propylbenzylidene)-2-(4-(4-(trifluoromethyl)benzoyl)piperazin-1-yl)acetohydrazide]	–	–	–
30 ± 2	CCCc1cccc(/C=N/NC(=O)CN2CCN(Cc3ccc(C#N)cc3)CC2)c1O [Compound 13, 2-(4-(4-cyanobenzyl)piperazin-1-yl)-N′-(2-hydroxy-3-propylbenzylidene)acetohydrazide]	9 ± 1.2	–	–
16 ± 1	C=CCc1cccc(/C=N/NC(=O)CN2CCN(Cc3ccc(C(F)(F)F)cc3)CC2)c1O [Compound 8, N′-(3-allyl-2-hydroxybenzylidene)-2-(4-(4-(trifluoromethyl)benzyl)piperazin-1-yl)acetohydrazide]	–	–	–
62 ± 3	CCCc1cc(F)cc(/C=N/NC(=O)CN2CCN(Cc3ccc(S(N)(=O)=O)cc3)CC2)c1O [Compound 38, 4-((4-(2-(2-(5-fluoro-2-hydroxy-3-propylbenzylidene)hydrazinyl)-2-oxoethyl)piperazin-1-yl)methyl)benzenesulfonamide]	–	–	–
